Assay results reported in US11076594B2, “Pyrazolone compound or salt thereof, preparation method therefor, herbicide composition and use thereof” (QINGDAO KINGAGROOT CHEMICAL COMPOUNDS CO., LTD., priority 2015, dated 2021).

Columns and labels:
Format in all cases: in vivo
Settings in all cases: post-emergence spray at 4-5 leaf stage, 250 g/ha active ingredient with 450 kg/ha water, rated after 3 weeks in greenhouse
Indian mallow = assay: weed control effect in post-emergence stage (Table 1); set-up: key: Level 10: completely dead; Level 9: above 95% growth control rate; Level 8: above 90% growth control rate; Level 7: above 80% growth control rate; Level 6: above 70% growth control rate; Level 5: above 60% growth control rate; Level 4: above 50% growth control rate; Level 3: above 20% growth control rate; Level 2: 5%-20% growth control rate; Level 1: below 5% growth control rate
How it was run: (§1)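 Seeds were sown in pots, covered with 0.5-2 cm soil and grown in a greenhouse. At the 4-5 leaf stage, plants were sprayed with the test compound formulated in acetone, Tween 80 and water. Fresh weight control was rated after 3 weeks.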

bidens bipinnata = assay: as above; set-up: key: Level 10: completely dead; Level 9: above 95% growth control rate; Level 8: above 90% growth control rate; Level 7: above 80% growth control rate; Level 6: above 70% growth control rate; Level 5: above 60% growth control rate; Level 4: above 50% growth control rate; Level 3: above 20% growth control rate; Level 2: 5%-20% growth control rate; Level 1: below 5% growth control rate
How it was run: as §1

crab grass = assay: as above; set-up: key: Level 10: completely dead; Level 9: above 95% growth control rate; Level 8: above 90% growth control rate; Level 7: above 80% growth control rate; Level 6: above 70% growth control rate; Level 5: above 60% growth control rate; Level 4: above 50% growth control rate; Level 3: above 20% growth control rate; Level 2: 5%-20% growth control rate; Level 1: below 5% growth control rate
How it was run: as §1

echinochloa = assay: as above; set-up: key: Level 10: completely dead; Level 9: above 95% growth control rate; Level 8: above 90% growth control rate; Level 7: above 80% growth control rate; Level 6: above 70% growth control rate; Level 5: above 60% growth control rate; Level 4: above 50% growth control rate; Level 3: above 20% growth control rate; Level 2: 5%-20% growth control rate; Level 1: below 5% growth control rate
How it was run: as §1

foxtail = assay: as above; set-up: key: Level 10: completely dead; Level 9: above 95% growth control rate; Level 8: above 90% growth control rate; Level 7: above 80% growth control rate; Level 6: above 70% growth control rate; Level 5: above 60% growth control rate; Level 4: above 50% growth control rate; Level 3: above 20% growth control rate; Level 2: 5%-20% growth control rate; Level 1: below 5% growth control rate
How it was run: as §1

rorippa indica = assay: as above; set-up: key: Level 10: completely dead; Level 9: above 95% growth control rate; Level 8: above 90% growth control rate; Level 7: above 80% growth control rate; Level 6: above 70% growth control rate; Level 5: above 60% growth control rate; Level 4: above 50% growth control rate; Level 3: above 20% growth control rate; Level 2: 5%-20% growth control rate; Level 1: below 5% growth control rate
How it was run: as §1

corn = assay: post-emergence stage experiment, crop (Table 1)
How it was run: as §1

wheat = assay: post-emergence stage experiment, crop (Table 1)
How it was run: as §1

rice = assay: post-emergence stage experiment, crop (Table 1)
How it was run: as §1

Structure (SMILES) | weed control effect, Indian mallow (level) (Indian mallow) | weed control effect, Bidens bipinnata (level) (bidens bipinnata) | weed control effect, Crab grass (level) (crab grass) | weed control effect, Echinochloa (level) (echinochloa) | weed control effect, Green foxtail (level) (foxtail) | weed control effect, Rorippa indica (level) (rorippa indica) | effect on crop, Corn (level) (corn) | effect on crop, Wheat (level) (wheat) | effect on crop, Rice (level) (rice)
Cn1ncc(C(=O)c2ccc(C(F)(F)F)c(N3CCCC3=O)c2Cl)c1O [Compound 014] | 7 (Level 7: above 80% growth control rate) | 8 (Level 8: above 90% growth control rate) | 10 | 5 (Level 5: above 60% growth control rate) | 10 | 10 | 8 (Level 8: above 90% growth control rate) | 3 (Level 3: above 20% growth control rate) | 3 (Level 3: above 20% growth control rate)
Cn1cc(C(=O)Oc2c(C(=O)c3ccc(C(F)(F)F)c(N4CCCCC4=O)c3Cl)cnn2C)cn1 [Compound 033] | 10 | 9 (Level 9: above 95% growth control rate) | 9 (Level 9: above 95% growth control rate) | 9 (Level 9: above 95% growth control rate) | 10 | 10 | 3 (Level 3: above 20% growth control rate) | 2 (Level 2: 5%-20% growth control rate) | 8 (Level 8: above 90% growth control rate)
CCOC(=O)Oc1c(C(=O)c2ccc(C(F)(F)F)c(N3CCCCC3=O)c2Cl)c(C)nn1C [Compound 036] | 5 (Level 5: above 60% growth control rate) | 6 (Level 6: above 70% growth control rate) | 5 (Level 5: above 60% growth control rate) | 7 (Level 7: above 80% growth control rate) | 10 | 5 (Level 5: above 60% growth control rate) | 0 | 3 (Level 3: above 20% growth control rate) | 8 (Level 8: above 90% growth control rate)
CCOC(=O)Oc1c(C(=O)c2ccc(C(F)(F)F)c(-n3cc(C)cn3)c2Cl)c(C)nn1C [Compound 085] | 10 | 10 | 8 (Level 8: above 90% growth control rate) | 9 (Level 9: above 95% growth control rate) | 10 | 2 (Level 2: 5%-20% growth control rate) | 0 | 0 | 6 (Level 6: above 70% growth control rate)
CCn1ncc(C(=O)c2ccc(C(F)(F)F)c(-n3cccn3)c2Cl)c1OC(=O)c1cn(C)nc1C [Compound 127] | 10 | 10 | 3 (Level 3: above 20% growth control rate) | 10 | 10 | 10 | 1 (Level 1: below 5% growth control rate) | 1 (Level 1: below 5% growth control rate) | 7 (Level 7: above 80% growth control rate)
